# Experiments:
# Folsomia candida = conditions: chronic/long-term; duration: 28 days; reproduction
# Typhlodromus pyri = test: LR50; higher = less toxic; conditions: not reported; mortality
# Daphnia magna = conditions: chronic/long-term; duration: 21 days
# Apis mellifera = conditions: acute, mortality
# Mus musculus = conditions: chronic; duration: 18 months; histopathology: neoplastic
# Oncorhynchus mykiss = conditions: acute; mortality
# Bibionidae = conditions: chronic/long-term; duration: 28 days
# Colinus virginianus = conditions: reproduction developmental; duration: 22 weeks
# Pimephales promelas = conditions: chronic/long-term
# Tagia sp. = conditions: chronic/long-term; duration: 56 days; other
Compound,NOEC (Folsomia candida),LR50 (Typhlodromus pyri),NOEC (Daphnia magna),LD50 (Apis mellifera; dermal),"LD50 (Apis mellifera; oral, unspecified)",NOAEL (Mus musculus),LD50 (Oncorhynchus mykiss),NOEC (Bibionidae),NOEL (Colinus virginianus),NOEC (Pimephales promelas),NOEC (Tagia sp.),"LOAEL (Rattus norvegicus; acute, neurology)","NOAEL (Rattus norvegicus; reproduction developmental, M, body weight)","NOAEL (Rattus norvegicus; subchronic, duration: 90 days, oral, organ weight)"
"CC(=O)C(C)(C)NC(=O)c1cc(Cl)cc(Cl)c1 [Benzamide, 3,5-dichloro-N-(1,1-dimethyl-2-oxopropyl)-]",20 mg/kg,–,–,–,–,–,–,–,–,–,–,–,–,–
C#CC(C)(C)NC(=O)c1cc(Cl)cc(Cl)c1 [Propyzamide],1.4 mg/kg,1890 g/ha,0.6 mg/L,> 100 µg/piece,> 100 µg/piece,5 mg/kg-day,> 4.7 mg/L,0.34 mg/L,30.9 mg/kg-day,0.224 mg/L,3.3 mg/kg,40 mg/kg-day,12.1 mg/kg-day,4.5 mg/kg-day

# Source: EPA's ToxValDB 9.5 (doi:10.2903/j.efsa.2016.4554)
